Reference: US20060240028A1, “Anti-nls substances and uses thereof in nuclear import inhibition” (priority 2002, published 2006)
No end group written: not given here.

Tests used:
[1] = tested on: VprN-BSA conjugate (N-terminal domain of Vpr, amino acids 17-34); assay: ELISA binding to surface-bound BSA-VprN conjugate; set-up: species or system HIV-1; details: FIG. 2
Procedure: Panning of the human scFv antibody phage display library [Harrison, J. L. et al. (1996) Methods in Enzymology 267, 83-109; Nissim, A. et al. (1994) EMBO J 13, 692-698] was conducted as follows. Two immunotubes (5 ml, NUNC) were incubated in parallel, with rotation at room temperature overnight, one containing the BSA-VprN conjugate and the other one containing only BSA, both in 0.1 mg/ml carbonate buffer (0.05M Na2CO3/0.05M NaHCO3, pH9.6). Following incubation, the tube with the surface attached BSA-VprN conjugates was washed three times with 1× PBS and then incubated for two hours at 37° C. with 2% (w/v) skim milk (DIFCO) in 1×PBS (2% MPBS). After three washes with 1× PBS, the scFv phage library (4 ml in 1% MPBS) was added and the tube containing the phage particles was incubated for 30 min with, and for 1.5 hours without rotation, at room temperature. The supernatant was then removed and the tube was washed ten times first with 1×PBS containing 0.05% Tween 20 and then with 1×PBS only. For elution of bound phages, 1 ml of 0.1M triethylamine was added, incubated for 10 min at room temperature with rotation, and the triethylamine solution containing the eluted phages collected and mixed with 0.5 ml of 1M Tris-HCl, pH7.4. […]

[2] = tested on: interaction between anti-VprN scFv antibodies and surface-bound BSA-VprN conjugate; assay: Competition ELISA: inhibition of anti-VprN scFv binding to surface-bound BSA-VprN by soluble ligands; set-up: species or system HIV-1; details: for inhibition of binding of the three antibodies to VprN-BSA by soluble ligand: Ab1, Ab2, Ab3
Procedure: (§1) The various ELISA assays used in the present work were carried out as follows: MaxiSorb plates (NUNC) were covered overnight with 25-100 μg/ml of the antigen (in Carbonate Buffer 0.05M Na2CO3/0.05M NaHCOs, pH9.6) at 4° C. On the next day, the plates were washed three times with 1×PBS and blocked with 2% BSA in 1×PBS (for antibodies) or 2% Skim Milk (DIFCO) in 1×PBS (for all other molecules) for 2 hours at 37° C. The plates were then washed three times with 1×PBS, and the appropriate ligand (in blocking solution) was added and incubated for 2 hours at 37° C. The plates were then washed three times with 1×PBS and the following detecting agents were added for detecting the antigen-ligand complexes: Avidin-POD (Roche Diagnostics), for biotin labeled molecules (1 unit/ml); anti-M13 monoclonal antibody (Amersham Pharmacia, 1:5000), for the bound phages; and a mix of mouse anti-myc antibody (Sigma, 1:1000) with anti-mouse-HRP antibody (Sigma, 1:2000) for the scFv antibodies. Each detecting agent was dissolved in the appropriate blocking solution (see above). Following incubation for 1 hour at 37° C. with the detecting agent, the plates were washed three times with 1×PBS and the appropriate substrate was added, according to manufacturer instructions.

[3] = tested on: binding of anti-VprN scFv antibodies to Vpr-GST; assay: Competition ELISA: inhibition of anti-VprN scFv binding to surface-bound Vpr-GST; set-up: species or system HIV-1; details: for inhibition of binding of all three antibodies to Vpr-GST by added ligand: Ab1, Ab2, Ab3
Procedure: as §1

[4] = tested on: VprN-mediated nuclear import; assay: Nuclear import of FL-BSA-VprN in permeabilized HeLa cells, fluorescence microscopy; format: cell-based; details: 1 mg/ml WGA, 4 mM GTP-γ-S, Table 2 (not given)
Procedure: (§2) Nuclear import of rhodamine-labeled BSA-NLS conjugates (FL-BSA-NLS) was performed as described before [Adam (1992) id ibid.; Broder (1997) id ibid.]. Amounts of FL-BSA-NLS substrate for FL-BSA SV40 large T-Ag NLS was 3-5 μg/system and for the FL-BSA-VprN 25 μg/system. Controls included: 1 mg/ml Wheat Germ Agglutinin (WGA), 4 mM of GTP-γ-S, or 1000 units/ml of Hexokinase and 10 mM Glucose. Samples were observed and photographed using confocal fluorescent microscopy.

[5] = tested on: nuclear import of Vpr-GST fusion protein; assay: Nuclear import of FL-Vpr-GST in digitonin permeabilized HeLa cells; format: cell-based; details: 5-fold excess unlabeled Vpr-GST
Procedure: as §2
The Vpr-GST fusion protein eluted from the Glutathione-Agarose resin was concentrated by VivaScience concentrators (MWCO 30,000) to a final concentration of 2.5-3.0 mg/ml, dialyzed for 2-3 hours against 1×PBS at 4° C. and labeled with rhodamine-maleimide Molecular Probes) according to manufacturer's instructions. Following 2 hours of incubation at room temperature with rotation, the labeled Vpr-GST fusion protein (FL-Vpr-GST) was purified using Sephadex G-25 fine (Pharmacia). The FL-Vpr-GST was then concentrated again using VivaScience concentrators (MWCO 30,000) and stored at −20° C.

[6] = tested on: Tat-ARM mediated nuclear import; assay: Nuclear import of FL-BSA-Tat conjugates in HeLa cells; format: cell-based; details: WGA 1 mg/ml, peptide/FL-BSA-Tat 20/1
[7] = target: T1, BSA-SV40 NLS conjugate (SV40, rhodamine- or biotin-labelled in the nuclear import assays; cysteine added at the C-terminus; peptide chemically conjugated to BSA); assay: peptide ELISA on coated BSA-NLS conjugates (FIG. 2A)
T1 construct: also called BSA-SV40 large T-antigen NLS; SV40 NLS-BSA conjugate
Procedure: (§3) The various ELISA assays used in the present work were carried out as follows: MaxiSorb plates (NUNC) were covered overnight with 25-100 μg/ml of the antigen (in Carbonate Buffer 0.05M Na₂CO₃/0.05M NaHCOs, pH9.6) at 4° C. On the next day, the plates were washed three times with 1×PBS and blocked with 2% BSA in 1×PBS (for antibodies) or 2% Skim Milk (DIFCO) in 1×PBS (for all other molecules) for 2 hours at 37° C. The plates were then washed three times with 1×PBS, and the appropriate ligand (in blocking solution) was added and incubated for 2 hours at 37° C. The plates were then washed three times with 1×PBS and the following detecting agents were added for detecting the antigen-ligand complexes: Avidin-POD (Roche Diagnostics), for biotin labeled molecules (1 unit/ml); anti-M13 monoclonal antibody (Amersham Pharmacia, 1:5000), for the bound phages; and a mix of mouse anti-myc antibody (Sigma, 1:1000) with anti-mouse-HRP antibody (Sigma, 1:2000) for the scFv antibodies. Each detecting agent was dissolved in the appropriate blocking solution (see above). Following incubation for 1 hour at 37° C. with the detecting agent, the plates were washed three times with 1×PBS and the appropriate substrate was added, according to manufacturer instructions.

[8] = target: T2, BSA-VprN conjugate (HIV-1, rhodamine- or biotin-labelled in the nuclear import assays; cysteine added at the N-terminus; peptide chemically conjugated to BSA); assay: peptide ELISA on coated BSA-NLS conjugates (FIGS. 2A and 2B)
T2 construct: The peptide is printed with superscripts 16 and 34, the text calls it residues 17-34; also called VprN-BSA conjugate; VprN-BSA
Procedure: as §3

[9] = target: anti-VprN scFv antibody Ab1; assay: competition ELISA: free VprN peptide against Ab1 binding to coated BSA-VprN

Molecule: peptide a: synthetic peptide of the CDR3 random insert of phage A, ISSD (SEQ. ID. NO. 4) (AFMKSGKRFIH; CDR3 random insert sequence of Ab2)
- binding of anti-VprN peptide to VprN-BSA conjugate [1]: failed to recognize

Molecule: VprN mutant (CNEATLELLPELKNPAVRHF)
- inhibition of binding of the three antibodies to VprN-BSA by soluble ligand [2]: No or low inhibition
- inhibition of binding of all three antibodies to Vpr-GST by added ligand [3]: no or little inhibition

Molecule: Nc1nc2c(ncn2[C@@H]2O[C@H](COP(=O)(O)OP(=O)(O)OP(O)(O)=S)[C@@H](O)[C@H]2O)c(=O)[nH]1 [GTP-γ-S]
- inhibition of nuclear import of BSA-VprN conjugate by control agents [4]: partially inhibited
- inhibition of nuclear import of Vpr-GST by control agents [5]: partially inhibited

Molecule: wheat germ agglutinin [WGA]
- inhibition of nuclear import of BSA-VprN conjugate by control agents [4]: inhibited
- inhibition of nuclear import of Vpr-GST by control agents [5]: inhibited
- inhibition of nuclear import of FL-BSA Tat ARM conjugates by control agents [6]: inhibited

Molecule: VprN-BSA: BSA molecule bearing about 3-4 covalently attached VprN peptides
- inhibition of binding of the three antibodies to VprN-BSA by soluble ligand [2]: inhibited
- concentration of soluble ligand inhibiting Ab1 binding to its antigen by 90% ([2]; Ab1, surface-bound VprN-BSA): about 5 μM
- fold lower concentration than VprN peptide required to block antibody binding to Vpr-GST [3]: about ten
- inhibition of binding of all three antibodies to Vpr-GST by added ligand [3]: strongly inhibited

Molecule: SV40 NLS peptide: PKKKRKVC (SEQ. ID. NO.7), the SV40 large T-antigen NLS (SV40-NLS with extra C)
- inhibition of binding of the three antibodies to VprN-BSA by soluble ligand [2]: No or low inhibition

Molecule: HFHYKGKLQTF (not fully specified) [synthetic anti-VprN peptide c (CDR3 random insert of phage C)]
- binding result [7]: no binding
- binding result [8]: no binding

Molecule: CNEWTLELLEELKNEAVRHF (cysteine added at the N-terminus) [VprN peptide (free synthetic peptide)]
- concentration giving 90% inhibition [9]: > 15 µM

Molecule: ISSD (not fully specified) [synthetic anti-VprN peptide a (CDR3 random insert of phage A)]
- binding result [7]: no binding
- binding result [8]: no binding
